Laboratory results published in patent publication US11498903B2 (BRISTOL-MYERS SQUIBB COMPANY, priority 2017, dated 2022).
Like-named read-outs stand apart in the source and are kept apart here.

Molecular target: T1, human APJ receptor (Homo sapiens, UniProt P35414)
T1 construct: expressed in transfected cells
T1 sequence (P35414 1-380): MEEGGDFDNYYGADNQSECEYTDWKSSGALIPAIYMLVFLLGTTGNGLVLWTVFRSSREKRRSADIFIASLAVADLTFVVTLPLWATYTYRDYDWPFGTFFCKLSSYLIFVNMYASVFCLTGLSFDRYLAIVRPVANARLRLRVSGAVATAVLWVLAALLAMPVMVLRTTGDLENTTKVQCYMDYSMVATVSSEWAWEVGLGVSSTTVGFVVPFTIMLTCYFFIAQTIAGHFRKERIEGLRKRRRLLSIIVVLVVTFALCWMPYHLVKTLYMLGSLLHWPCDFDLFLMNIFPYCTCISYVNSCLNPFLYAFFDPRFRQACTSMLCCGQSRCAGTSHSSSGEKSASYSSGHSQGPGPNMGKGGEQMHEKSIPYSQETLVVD
Experiment: Intracellular cAMP accumulation assay (APJ hcAMP, HTRF)
Assay type: cell-based
Summary of the method: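 HEK293 cells stably expressing human APJ, 5,000/well, incubated 30 min at room temperature with compound plus […] and 2 μM forskolin. cAMP read by HTRF against a cAMP standard curve; EC50 from variable-slope sigmoidal fit, Ymax as % of (Pyr1)apelin-13 inhibition.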

[1] = Table 1, HEK293 cells stably expressing human APJ receptor, inhibition of forskolin-mediated cAMP production, read-out: APJ hcAMP EC50
[2] = human APJ, cAMP, potency range class, read-out: APJ cAMP Human EC50
[3] = Table 2, HEK293 cells stably expressing human APJ receptor, read-out: APJ cAMP Human EC50

EC50 [1] | EC50 [2] | EC50 (Table 3, HEK293 cells stably expressing human APJ receptor, read-out: APJ cAMP Human EC50) | EC50 [3] | SMILES
< 0.01 µM | < 0.01 µM | – | – | CCCC(NC(=O)c1ccc(-c2c(Cl)cccc2-c2nc3cc(Cl)c(F)cc3[nH]2)c(C(=O)O)c1)c1c(C)cc(C)cc1C (single isomer, unassigned) [Example 201]
0.101 to 0.5 µM | 0.101 to 0.5 µM | – | – | COC(=O)c1cc(C(=O)N[C@H](c2ccc(Cl)cc2)C2CC2)ccc1-c1c(Cl)cccc1-c1nc2cc(OC)c(F)cc2[nH]1 (single isomer, unassigned) [Example 204]
0.01 to 0.1 µM | 0.01 to 0.1 µM | – | – | COc1cc2nc(-c3cccc(Cl)c3-c3ccc(C(=O)N[C@H](c4ccc(Cl)cc4)C4CC4)cc3CO)[nH]c2cc1F (single isomer, unassigned) [Example 205]
< 0.01 µM | < 0.01 µM | – | – | CCCC(NC(=O)c1ccc(-c2cc(Cl)ccc2-c2nc3ccccc3[nH]2)c(C(=O)O)c1)c1ccc(F)cc1 (single isomer, unassigned) [Example 209, 2′-(1H-1,3-benzodiazol-2-yl)-5′-chloro-4-{[1-(4-fluorophenyl)butyl]carbamoyl}-[1,1′-biphenyl]-2-carboxylic acid]
< 0.01 µM | < 0.01 µM | – | – | O=C(NC(c1ccccc1)C1CC1)c1ccc(-c2cc(Cl)ccc2-c2nc3ccccc3[nH]2)c(C(=O)O)c1 (single isomer, unassigned) [Example 211, 2′-(1H-1,3-benzodiazol-2-yl)-5′-chloro-4-{[cyclopropyl(phenyl)methyl]carbamoyl}-[1,1′-biphenyl]-2-carboxylic acid]
0.101 to 0.5 µM | 0.101 to 0.5 µM | – | – | CCCC(NC(=O)c1ccc(-c2cc(Cl)ccc2-c2nc3ccccc3[nH]2)c(C(=O)O)c1)c1ccc(F)cc1 (single isomer, unassigned) [Example 215, 2′-(1H-1,3-benzodiazol-2-yl)-5′-chloro-4-{[1-(4-fluorophenyl)butyl]carbamoyl}-[1,1′-biphenyl]-2-carboxylic acid]
< 0.01 µM | < 0.01 µM | – | – | O=C(NC(c1ccccc1)C1CC1)c1ccc(-c2c(Cl)cccc2-c2nc3ccccc3[nH]2)c(C(=O)O)c1 (single isomer, unassigned) [Example 220]
< 0.01 µM | < 0.01 µM | – | – | CCC[C@H](NC(=O)c1ccc(-c2c(Cl)cccc2-c2nc3ccccc3[nH]2)c(C(=O)O)c1)c1ccccc1OC (single isomer, unassigned) [Example 221]
< 0.01 µM | < 0.01 µM | – | – | O=C(NC(c1ccc(Cl)cc1)C1CC1)c1ccc(-c2c(Cl)cccc2-c2nc3ccccc3[nH]2)c(C(=O)O)c1 (single isomer, unassigned) [Example 224]
< 0.01 µM | < 0.01 µM | – | – | O=C(NC(C1CCCCC1)C1CC1)c1ccc(-c2c(Cl)cccc2-c2nc3ccccc3[nH]2)c(C(=O)O)c1 (single isomer, unassigned) [Example 227]
< 0.01 µM | < 0.01 µM | – | – | CCCC(NC(=O)c1ccc(-c2c(Cl)cccc2-c2nc3ccccc3[nH]2)c(C(=O)O)c1)c1ccc(F)cc1 (single isomer, unassigned) [Example 228]
0.01 to 0.1 µM | 0.01 to 0.1 µM | – | – | O=C(N[C@H](c1ccccc1)C1CC1)c1ccc(-c2c(Cl)cccc2-c2nc3ccccc3[nH]2)c(C(=O)O)c1 (single isomer, unassigned) [Example 229]
< 0.01 µM | < 0.01 µM | – | – | CCC[C@@H](NC(=O)c1ccc(-c2c(Cl)cccc2-c2nc3cc(OC)ccc3[nH]2)c(C(=O)O)c1)C1CCCCC1 (single isomer, unassigned) [Example 231]
< 0.01 µM | < 0.01 µM | – | – | CCC[C@H](NC(=O)c1ccc(-c2c(Cl)cccc2-c2nc3cc(OC)c(F)cc3[nH]2)c(C(=O)O)c1)c1ccc(F)cc1 (single isomer, unassigned) [Example 233]
< 0.01 µM | < 0.01 µM | – | – | COc1cc2nc(-c3cccc(Cl)c3-c3ccc(C(=O)N[C@H](c4ccccc4)C4CC4)cc3C(=O)O)[nH]c2cc1F (single isomer, unassigned) [Example 234]
< 0.01 µM | < 0.01 µM | – | – | COc1cc2nc(-c3cccc(Cl)c3-c3ccc(C(=O)NC(C4CCCCC4)C4CC4)cc3C(=O)O)[nH]c2cc1F (single isomer, unassigned) [Example 235]

EC50 [1] | EC50 [2] | EC50 (Table 3, HEK293 cells stably expressing human APJ receptor, read-out: APJ cAMP Human EC50) | EC50 [3] | SMILES
< 0.01 µM | < 0.01 µM | – | – | CCC[C@H](NC(=O)c1ccc(-c2c(Cl)cccc2-c2nc3cc(OC)c(F)cc3[nH]2)c(C(=O)O)c1)c1ccc(Cl)cc1 (single isomer, unassigned) [Example 236]
< 0.01 µM | < 0.01 µM | – | – | COc1cc2nc(-c3cccc(Cl)c3-c3ccc(C(=O)N[C@H](c4ccc(Cl)cc4)C4CC4)cc3C(=O)O)[nH]c2cc1F (single isomer, unassigned) [Example 237]
< 0.01 µM | < 0.01 µM | – | – | CCC[C@H](NC(=O)c1ccc(-c2c(Cl)cccc2-c2nc3cc(OC)c(F)cc3[nH]2)c(C(=O)O)c1)c1ccccc1OC (single isomer, unassigned) [Example 238]
< 0.01 µM | < 0.01 µM | – | – | CCC[C@H](NC(=O)c1ccc(-c2c(Cl)cccc2-c2nc3cc(F)c(Cl)cc3[nH]2)c(C(=O)O)c1)c1ccc(Cl)cc1 (single isomer, unassigned) [Example 239]
< 0.01 µM | < 0.01 µM | – | – | O=C(N[C@H](c1ccc(Cl)cc1)C1CC1)c1ccc(-c2c(Cl)cccc2-c2nc3cc(F)c(Cl)cc3[nH]2)c(C(=O)O)c1 (single isomer, unassigned) [Example 240]
– | – | 0.01 to 0.1 µM | – | CCC[C@H](NC(=O)c1ccc(-c2c(Cl)cccc2-c2nc3cc(OC)c(F)cc3[nH]2)c(CO)c1)c1ccccc1 (stereo in doubt) [Example 131, (S)-2′-chloro-6′-(6-fluoro-5-methoxy-1H-1,3-benzodiazol-2-yl)-2-(hydroxymethyl)-N-(1-phenylbutyl)-[1,1′-biphenyl]-4-carboxamide]
< 0.01 µM | – | – | < 0.01 µM | CCC[C@@H](NC(=O)c1ccc(-c2cc(Cl)ccc2-c2nc3cc(OC)ccc3[nH]2)c(C(=O)O)c1)c1ccccc1 [Example 1, (R)-5′-Chloro-2′-(5-methoxy-1H-benzo[d]imidazol-2-yl)-4-((1-phenylbutyl)carbamoyl)-[1,1′-biphenyl]-2-carboxylic acid]
< 0.01 µM | – | – | < 0.01 µM | CCC[C@@H](NC(=O)c1ccc(-c2cc(Cl)ccc2-c2nc3ccccc3[nH]2)c(C(=O)O)c1)c1ccccc1 [Example 2, (R)-2′-(1H-Benzo[d]imidazol-2-yl)-5′-chloro-4-((1-phenylbutyl)carbamoyl)-[1,1′-biphenyl]-2-carboxylic acid]
< 0.01 µM | – | – | < 0.01 µM | CCC[C@@H](NC(=O)c1ccc(-c2cc(Cl)ccc2-c2nc3cc(O)ccc3[nH]2)c(C(=O)O)c1)c1ccccc1 [Example 3, (R)-5′-Chloro-2′-(5-hydroxy-1H-benzo[d]imidazol-2-yl)-4-((1-phenylbutyl)carbamoyl)-[1,1′-biphenyl]-2-carboxylic acid]
< 0.01 µM | – | – | < 0.01 µM | CCC[C@@H](NC(=O)c1ccc(-c2cc(Cl)ccc2-c2ncc(-c3ccccc3)[nH]2)c(C(=O)O)c1)c1ccccc1 [Example 4, (R)-5′-Chloro-2′-(4-phenyl-1H-imidazol-2-yl)-4-((1-phenylbutyl)carbamoyl)-[1,1′-biphenyl]-2-carboxylic acid]
0.01 to 0.1 µM | – | – | 0.01 to 0.1 µM | O=C(N[C@H](CN1CCOCC1)c1ccccc1)c1ccc(-c2cc(Cl)ccc2-c2nc3ccccc3[nH]2)c(C(=O)O)c1 [Example 5, (S)-2′-(1H-benzo[d]imidazol-2-yl)-5′-chloro-4-((2-morpholino-1-phenylethyl)carbamoyl)-[1,1′-biphenyl]-2-carboxylic acid]
0.101 to 0.5 µM | – | – | 0.101 to 0.5 µM | CCC[C@@H](NC(=O)c1ccc(-c2cc(Cl)ccc2-c2nc3ccccc3[nH]2)c(C(=O)NC#N)c1)c1ccccc1 [Example 6, (R)-2′-(1H-benzo[d]imidazol-2-yl)-5′-chloro-N2-cyano-N4-(1-phenylbutyl)-[1,1′-biphenyl]-2,4-dicarboxamide]
0.01 to 0.1 µM | – | – | 0.01 to 0.1 µM | CCC[C@@H](NC(=O)c1ccc(-c2cc(Cl)ccc2-c2nc3ccccc3[nH]2)c(CO)c1)c1ccccc1 [Example 7, (R)-2′-(1H-benzo[d]imidazol-2-yl)-5′-chloro-2-(hydroxymethyl)-N-(1-phenylbutyl)-[1,1′-biphenyl]-4-carboxamide]
0.01 to 0.1 µM | – | – | 0.01 to 0.1 µM | CCC[C@@H](NC(=O)c1ccc(-c2cc(Cl)ccc2-c2nc3cc(OC)ccc3[nH]2)c(-c2nc(=O)o[nH]2)c1)c1ccccc1 [Example 8, (R)-5′-chloro-2′-(5-methoxy-1H-benzo[d]imidazol-2-yl)-2-(5-oxo-2,5-dihydro-1,2,4-oxadiazol-3-yl)-N-(1-phenylbutyl)-[1,1′-biphenyl]-4-carboxamide]
0.01 to 0.1 µM | – | – | 0.01 to 0.1 µM | CCC[C@@H](NC(=O)c1ccc(-c2cc(Cl)ccc2-c2nc3ccccc3[nH]2)c(-c2n[nH]c(=O)o2)c1)c1ccccc1 [Example 9]
0.101 to 0.5 µM | – | – | 0.101 to 0.5 µM | CCC[C@@H](NC(=O)c1ccc(-c2cc(Cl)ccc2-c2nc3cc(OC)ccc3[nH]2)c(-c2nc(=S)o[nH]2)c1)c1ccccc1 [Example 10, (R)-5′-chloro-2′-(5-methoxy-1H-benzo[d]imidazol-2-yl)-N-(1-phenylbutyl)-2-(5-thioxo-2,5-dihydro-1,2,4-oxadiazol-3-yl)-[1,1′-biphenyl]-4-carboxamide]
